Test results reported in article doi:10.1101/307710v1, “Assignment of the resting state of the secondary active transporter BetP by integrating spectroscopic measurements and molecular simulations” (biorxiv, 2018).

Target: T1, BetP (Corynebacterium glutamicum, UniProt P54582)
T1 construct: plasmid pASK-IBA5betP, Strep-Tactin purified from E. coli DH5alpha-T1, reconstituted in E. coli polar lipid liposomes; homotrimer
T1 sequence (P54582 1-595): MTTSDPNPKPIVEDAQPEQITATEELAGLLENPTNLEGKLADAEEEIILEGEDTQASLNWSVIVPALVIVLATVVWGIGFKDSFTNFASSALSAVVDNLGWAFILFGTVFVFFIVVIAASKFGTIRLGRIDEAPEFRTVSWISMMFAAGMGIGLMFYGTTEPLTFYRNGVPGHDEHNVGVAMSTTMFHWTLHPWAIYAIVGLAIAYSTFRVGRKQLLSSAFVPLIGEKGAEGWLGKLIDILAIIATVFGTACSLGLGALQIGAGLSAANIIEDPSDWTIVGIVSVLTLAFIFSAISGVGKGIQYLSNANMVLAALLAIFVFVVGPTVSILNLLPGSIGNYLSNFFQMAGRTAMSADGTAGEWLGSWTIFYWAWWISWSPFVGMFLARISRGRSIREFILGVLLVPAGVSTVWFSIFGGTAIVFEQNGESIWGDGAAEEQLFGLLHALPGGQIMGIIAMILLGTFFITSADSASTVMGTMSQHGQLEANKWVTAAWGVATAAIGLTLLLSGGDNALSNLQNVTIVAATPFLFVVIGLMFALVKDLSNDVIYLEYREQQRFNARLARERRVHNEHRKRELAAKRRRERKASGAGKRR
Experiment: […]-betaine uptake into proteoliposomes
Format: biochemical
Settings: labelled compound; 50 uM betaine, 25 mM NaCl, pH 7.5, 0.6 osmol/kg, valinomycin

In the case of C[N+](C)(C)CC(=O)[O-] [betaine], the “[14C]-betaine uptake into proteoliposomes” value is reported as “the activity of G450R5/S516R5 is only slightly decreased compared to the wildtype”.
